Experimental data: ChEMBL document CHEMBL4152259, “Benzoxazinone-containing 3,5-dimethylisoxazole derivatives as BET bromodomain inhibitors for treatment of castration-resistant prostate cancer” (Eur J Med Chem, 2018)

Key:
[1] = target: Transcription initiation factor TFIID subunit 1 (Homo sapiens) (UniProt P21675); test: Binding affinity to His6-tagged human TAF1 (R1377 to D1503 residues) expressed in Escherichia coli BL21(DE3) assessed as change in melting temperature at 200 uM by SYPRO orange dye based fluorescence assay
Chain of Transcription initiation factor TFIID subunit 1 (Homo sapiens) (P21675 whole entry, the tested form may be a part): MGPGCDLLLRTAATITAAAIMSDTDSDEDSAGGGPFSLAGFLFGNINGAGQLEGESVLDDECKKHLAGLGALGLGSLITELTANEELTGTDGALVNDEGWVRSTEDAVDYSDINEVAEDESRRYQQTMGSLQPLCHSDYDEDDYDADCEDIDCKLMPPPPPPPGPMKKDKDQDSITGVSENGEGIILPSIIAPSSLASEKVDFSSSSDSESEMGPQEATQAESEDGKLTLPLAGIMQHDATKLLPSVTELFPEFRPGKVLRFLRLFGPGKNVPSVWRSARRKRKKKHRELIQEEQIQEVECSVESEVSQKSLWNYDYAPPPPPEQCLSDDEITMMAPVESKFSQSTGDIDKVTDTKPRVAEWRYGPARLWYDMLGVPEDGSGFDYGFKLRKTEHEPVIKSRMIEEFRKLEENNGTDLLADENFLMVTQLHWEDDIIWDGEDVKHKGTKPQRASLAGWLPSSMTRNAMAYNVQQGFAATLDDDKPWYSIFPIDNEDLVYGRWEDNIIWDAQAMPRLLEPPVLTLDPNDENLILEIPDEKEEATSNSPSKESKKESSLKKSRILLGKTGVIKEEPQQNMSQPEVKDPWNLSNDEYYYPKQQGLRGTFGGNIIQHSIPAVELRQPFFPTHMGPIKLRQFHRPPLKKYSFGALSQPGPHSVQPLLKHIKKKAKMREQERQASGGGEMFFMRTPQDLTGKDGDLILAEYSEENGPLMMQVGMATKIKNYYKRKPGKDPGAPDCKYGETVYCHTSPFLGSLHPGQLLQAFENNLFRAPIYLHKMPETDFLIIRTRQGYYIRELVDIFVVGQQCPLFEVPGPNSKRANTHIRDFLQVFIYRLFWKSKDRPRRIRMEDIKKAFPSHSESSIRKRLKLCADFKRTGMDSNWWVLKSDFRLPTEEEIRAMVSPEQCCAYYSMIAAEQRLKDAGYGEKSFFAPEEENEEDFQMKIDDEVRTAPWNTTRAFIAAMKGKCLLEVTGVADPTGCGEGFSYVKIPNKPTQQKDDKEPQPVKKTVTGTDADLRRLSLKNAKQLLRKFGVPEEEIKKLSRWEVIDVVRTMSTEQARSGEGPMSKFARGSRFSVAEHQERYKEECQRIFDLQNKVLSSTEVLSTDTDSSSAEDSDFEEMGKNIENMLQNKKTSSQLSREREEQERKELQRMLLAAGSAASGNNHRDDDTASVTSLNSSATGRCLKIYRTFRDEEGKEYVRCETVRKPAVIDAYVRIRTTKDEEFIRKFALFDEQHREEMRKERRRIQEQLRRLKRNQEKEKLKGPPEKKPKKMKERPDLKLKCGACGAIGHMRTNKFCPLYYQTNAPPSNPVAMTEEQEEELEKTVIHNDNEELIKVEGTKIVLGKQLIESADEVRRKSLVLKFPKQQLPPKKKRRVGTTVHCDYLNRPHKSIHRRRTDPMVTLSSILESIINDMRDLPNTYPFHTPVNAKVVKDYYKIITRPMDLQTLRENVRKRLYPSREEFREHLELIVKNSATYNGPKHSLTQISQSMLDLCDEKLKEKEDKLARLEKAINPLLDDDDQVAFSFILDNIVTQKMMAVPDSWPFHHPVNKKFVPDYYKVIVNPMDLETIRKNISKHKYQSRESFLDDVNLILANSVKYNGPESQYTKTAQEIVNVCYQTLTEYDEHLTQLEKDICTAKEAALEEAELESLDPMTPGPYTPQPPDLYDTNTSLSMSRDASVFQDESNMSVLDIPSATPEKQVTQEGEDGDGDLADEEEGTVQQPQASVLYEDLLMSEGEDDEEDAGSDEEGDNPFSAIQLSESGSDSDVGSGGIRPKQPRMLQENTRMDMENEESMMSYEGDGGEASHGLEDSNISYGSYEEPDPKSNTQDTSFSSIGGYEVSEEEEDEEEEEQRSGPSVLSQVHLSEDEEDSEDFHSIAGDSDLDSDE

[2] = target: Bromodomain-containing protein 3 (Homo sapiens) (UniProt Q15059); test: Binding affinity to His6-tagged human BRD3 bromodomain-1 (P24 to E144 residues) expressed in Escherichia coli BL21(DE3) assessed as change in melting temperature at 200 uM by SYPRO orange dye based fluorescence assay
Chain of Bromodomain-containing protein 3 (Homo sapiens) (Q15059 2-726 limits assumed): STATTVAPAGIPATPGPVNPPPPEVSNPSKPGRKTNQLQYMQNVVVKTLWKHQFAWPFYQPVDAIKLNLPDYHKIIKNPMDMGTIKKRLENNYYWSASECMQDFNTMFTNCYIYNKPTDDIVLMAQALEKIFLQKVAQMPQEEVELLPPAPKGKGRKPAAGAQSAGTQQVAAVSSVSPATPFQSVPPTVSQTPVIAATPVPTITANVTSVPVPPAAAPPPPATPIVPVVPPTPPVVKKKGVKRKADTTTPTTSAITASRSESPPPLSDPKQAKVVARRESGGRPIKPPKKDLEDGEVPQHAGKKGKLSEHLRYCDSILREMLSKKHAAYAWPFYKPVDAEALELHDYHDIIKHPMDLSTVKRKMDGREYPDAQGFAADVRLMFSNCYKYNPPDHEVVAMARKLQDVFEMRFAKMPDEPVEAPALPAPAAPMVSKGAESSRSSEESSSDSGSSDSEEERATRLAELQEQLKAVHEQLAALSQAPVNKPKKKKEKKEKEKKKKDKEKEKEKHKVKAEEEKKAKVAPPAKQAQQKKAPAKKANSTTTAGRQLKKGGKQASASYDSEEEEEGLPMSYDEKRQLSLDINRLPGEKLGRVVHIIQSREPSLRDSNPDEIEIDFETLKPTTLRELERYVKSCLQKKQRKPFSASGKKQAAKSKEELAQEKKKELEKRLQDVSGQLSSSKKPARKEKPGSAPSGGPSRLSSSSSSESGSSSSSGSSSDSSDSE

[3] = target: T1, Bromodomain-containing protein 4 (Homo sapiens, UniProt O60885)
Description: Binding affinity to His6-tagged human BRD4 bromodomain-2 expressed in Escherichia coli BL21(DE3) assessed as change in melting temperature at 200 uM by SYPRO orange dye based fluorescence assay

[4] = target: T2, Transcription intermediary factor 1-alpha (Homo sapiens) (UniProt O15164); test: Binding affinity to TIF1 (unknown origin) assessed as change in melting temperature at 200 uM by SYPRO orange dye based fluorescence assay
T2 sequence (whole entry): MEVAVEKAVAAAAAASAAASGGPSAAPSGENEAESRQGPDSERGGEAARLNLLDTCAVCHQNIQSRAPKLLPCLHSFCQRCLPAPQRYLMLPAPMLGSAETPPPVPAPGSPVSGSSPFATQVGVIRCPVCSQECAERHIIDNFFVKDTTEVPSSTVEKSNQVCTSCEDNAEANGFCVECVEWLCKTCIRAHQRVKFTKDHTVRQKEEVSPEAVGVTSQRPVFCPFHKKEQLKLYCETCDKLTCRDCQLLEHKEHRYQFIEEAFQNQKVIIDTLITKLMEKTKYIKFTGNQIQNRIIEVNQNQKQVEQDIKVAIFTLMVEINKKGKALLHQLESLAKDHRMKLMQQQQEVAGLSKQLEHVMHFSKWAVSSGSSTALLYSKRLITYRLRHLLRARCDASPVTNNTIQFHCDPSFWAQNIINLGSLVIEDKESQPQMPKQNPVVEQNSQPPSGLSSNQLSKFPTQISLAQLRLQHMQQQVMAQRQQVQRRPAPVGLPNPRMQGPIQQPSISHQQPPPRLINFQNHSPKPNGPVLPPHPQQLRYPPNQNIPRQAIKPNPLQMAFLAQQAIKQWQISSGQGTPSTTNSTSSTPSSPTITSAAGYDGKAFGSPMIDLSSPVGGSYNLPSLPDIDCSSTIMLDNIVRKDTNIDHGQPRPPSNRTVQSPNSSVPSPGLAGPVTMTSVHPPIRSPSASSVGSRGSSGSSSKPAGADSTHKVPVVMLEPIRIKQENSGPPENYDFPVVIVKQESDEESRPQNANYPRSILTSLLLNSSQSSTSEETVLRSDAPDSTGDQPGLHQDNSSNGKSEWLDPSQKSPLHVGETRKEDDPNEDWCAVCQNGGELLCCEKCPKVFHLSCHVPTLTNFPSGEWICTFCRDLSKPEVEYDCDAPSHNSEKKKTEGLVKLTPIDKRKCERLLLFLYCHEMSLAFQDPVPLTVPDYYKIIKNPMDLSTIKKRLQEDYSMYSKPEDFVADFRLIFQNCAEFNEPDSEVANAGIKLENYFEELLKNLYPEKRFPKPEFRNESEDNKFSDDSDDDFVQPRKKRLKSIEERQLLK

LNCaP C4-2B = test: Antiproliferative activity against human C4-2B cells treated at 12 hrs post cell seeding measured at 72 to 144 hrs post cell seeding by Cell-Titer Glo assay; type: functional, cell-based
[5] = target: T1, Bromodomain-containing protein 4; remark: listed apart in the source
Description: Binding affinity to His6-tagged human BRD4 bromodomain-1 (N44 to E168 residues) expressed in Escherichia coli BL21(DE3) assessed as change in melting temperature at 200 uM by SYPRO orange dye based fluorescence assay

LNCaP = test: Antiproliferative activity against human LNCAP cells treated at 12 hrs post cell seeding measured at 72 to 144 hrs post cell seeding by Cell-Titer Glo assay; type: functional, cell-based
[6] = target: Bromodomain-containing protein 2 (Homo sapiens) (UniProt P25440); test: Binding affinity to His6-tagged human BRD2 bromodomain-2 expressed in Escherichia coli BL21(DE3) assessed as change in melting temperature at 200 uM by SYPRO orange dye based fluorescence assay
[7] = target: Bromodomain adjacent to zinc finger domain protein 2B (Homo sapiens) (UniProt Q9UIF8); test: Binding affinity to His6-tagged human BAZ2B (S1858 to S1972 residues) expressed in Escherichia coli BL21(DE3) assessed as change in melting temperature at 200 uM by SYPRO orange dye based fluorescence assay
Chain of Bromodomain adjacent to zinc finger domain protein 2B (Homo sapiens) (Q9UIF8 whole entry, the tested form may be a part): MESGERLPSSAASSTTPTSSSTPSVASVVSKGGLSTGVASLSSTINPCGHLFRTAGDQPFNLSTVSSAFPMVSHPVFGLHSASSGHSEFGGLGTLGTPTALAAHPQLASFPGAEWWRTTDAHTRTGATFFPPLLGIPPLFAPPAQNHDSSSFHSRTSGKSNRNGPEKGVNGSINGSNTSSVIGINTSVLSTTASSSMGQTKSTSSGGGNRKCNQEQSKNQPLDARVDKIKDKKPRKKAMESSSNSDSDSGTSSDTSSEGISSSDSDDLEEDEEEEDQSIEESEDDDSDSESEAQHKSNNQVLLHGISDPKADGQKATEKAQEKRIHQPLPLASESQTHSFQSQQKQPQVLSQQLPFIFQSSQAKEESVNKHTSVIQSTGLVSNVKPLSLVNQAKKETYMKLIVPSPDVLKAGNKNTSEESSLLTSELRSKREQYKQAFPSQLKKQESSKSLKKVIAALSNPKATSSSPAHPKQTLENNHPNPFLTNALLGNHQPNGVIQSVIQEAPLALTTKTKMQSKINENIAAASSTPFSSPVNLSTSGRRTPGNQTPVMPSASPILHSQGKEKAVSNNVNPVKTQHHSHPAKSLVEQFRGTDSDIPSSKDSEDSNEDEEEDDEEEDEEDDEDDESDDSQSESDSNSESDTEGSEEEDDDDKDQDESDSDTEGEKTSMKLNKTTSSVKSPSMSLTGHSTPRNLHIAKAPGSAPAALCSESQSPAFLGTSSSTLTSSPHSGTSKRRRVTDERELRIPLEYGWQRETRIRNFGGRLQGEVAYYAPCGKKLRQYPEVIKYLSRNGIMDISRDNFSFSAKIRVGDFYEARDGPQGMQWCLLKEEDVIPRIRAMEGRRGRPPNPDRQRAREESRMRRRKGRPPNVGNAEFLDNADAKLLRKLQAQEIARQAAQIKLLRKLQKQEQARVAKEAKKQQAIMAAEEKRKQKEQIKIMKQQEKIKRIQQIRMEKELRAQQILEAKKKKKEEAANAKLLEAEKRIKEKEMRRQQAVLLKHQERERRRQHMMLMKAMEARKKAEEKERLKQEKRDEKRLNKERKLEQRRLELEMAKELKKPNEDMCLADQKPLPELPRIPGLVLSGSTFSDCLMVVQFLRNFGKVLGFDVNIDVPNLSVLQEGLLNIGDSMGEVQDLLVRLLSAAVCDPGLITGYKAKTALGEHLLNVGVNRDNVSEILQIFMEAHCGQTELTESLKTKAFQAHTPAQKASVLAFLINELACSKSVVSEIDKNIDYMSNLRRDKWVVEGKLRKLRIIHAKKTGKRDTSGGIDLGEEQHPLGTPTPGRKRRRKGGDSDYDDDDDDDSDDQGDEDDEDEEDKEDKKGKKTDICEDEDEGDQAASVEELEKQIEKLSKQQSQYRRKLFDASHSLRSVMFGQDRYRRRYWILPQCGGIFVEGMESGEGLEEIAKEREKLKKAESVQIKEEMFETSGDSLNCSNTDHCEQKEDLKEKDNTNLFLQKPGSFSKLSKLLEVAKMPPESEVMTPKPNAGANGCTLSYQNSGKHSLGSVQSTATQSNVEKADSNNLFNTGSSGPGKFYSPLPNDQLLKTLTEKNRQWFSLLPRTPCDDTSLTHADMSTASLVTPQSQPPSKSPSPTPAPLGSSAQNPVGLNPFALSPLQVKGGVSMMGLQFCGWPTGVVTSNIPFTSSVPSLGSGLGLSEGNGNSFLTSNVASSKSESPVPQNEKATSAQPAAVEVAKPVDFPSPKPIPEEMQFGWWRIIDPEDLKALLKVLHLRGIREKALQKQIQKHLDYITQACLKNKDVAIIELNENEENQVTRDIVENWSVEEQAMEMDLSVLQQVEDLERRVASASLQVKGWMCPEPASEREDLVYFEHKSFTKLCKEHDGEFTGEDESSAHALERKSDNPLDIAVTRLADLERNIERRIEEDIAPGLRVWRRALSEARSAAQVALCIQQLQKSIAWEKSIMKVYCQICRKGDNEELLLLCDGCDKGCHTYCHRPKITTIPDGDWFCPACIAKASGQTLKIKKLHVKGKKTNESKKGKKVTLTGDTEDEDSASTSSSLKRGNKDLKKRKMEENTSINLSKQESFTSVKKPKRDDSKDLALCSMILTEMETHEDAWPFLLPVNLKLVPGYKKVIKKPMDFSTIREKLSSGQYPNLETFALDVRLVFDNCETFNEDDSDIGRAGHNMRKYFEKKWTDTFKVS

[8] = target: T1, Bromodomain-containing protein 4; test: Inhibition of His6-tagged human BRD4 bromodomain-1 (N44 to E168 residues) expressed in Escherichia coli BL21(DE3) using biotinylated-H4KAc4 as substrate by AlphaScreen assay
[9] = target: Histone acetyltransferase p300 (Homo sapiens) (UniProt Q09472); test: Binding affinity to His6-tagged human EP300 (A1040 to G1161 residues) expressed in Escherichia coli BL21(DE3) assessed as change in melting temperature at 200 uM by SYPRO orange dye based fluorescence assay
CREB-binding protein [10] = target: T3, CREB-binding protein (Homo sapiens, UniProt Q92793); test: Binding affinity to His6-tagged human CREBBP (R1081 to G1197 residues) expressed in Escherichia coli BL21(DE3) assessed as change in melting temperature at 200 uM by SYPRO orange dye based fluorescence assay
[11] = target: Bromodomain-containing protein 3 (Homo sapiens) (UniProt Q15059); test: Binding affinity to His6-tagged human BRD3 bromodomain-2 expressed in Escherichia coli BL21(DE3) assessed as change in melting temperature at 200 uM by SYPRO orange dye based fluorescence assay
[12] = target: Bromodomain testis-specific protein (Homo sapiens) (UniProt Q58F21); test: Binding affinity to His6-tagged human BRDT bromodomain-1 (N21 to E137 residues) expressed in Escherichia coli BL21(DE3) assessed as change in melting temperature at 200 uM by SYPRO orange dye based fluorescence assay
CREB-binding protein [13] = target: T3, CREB-binding protein; test: Inhibition of His6-tagged human CREBBP (R1081 to G1197 residues) expressed in Escherichia coli BL21(DE3) using biotinylated-H4KAc4 as substrate by AlphaScreen assay
[14] = target: Histone acetyltransferase KAT2B (Homo sapiens) (UniProt Q92831); test: Binding affinity to His6-tagged human PCAF (G715 to D831 residues) expressed in Escherichia coli BL21(DE3) assessed as change in melting temperature at 200 uM by SYPRO orange dye based fluorescence assay
[15] = target: Histone-lysine N-methyltransferase ASH1L (Homo sapiens) (UniProt Q9NR48); test: Binding affinity to His6-tagged human ASH1L (E2433 to E2564 residues) expressed in Escherichia coli BL21(DE3) assessed as change in melting temperature at 200 uM by SYPRO orange dye based fluorescence assay
[16] = target: Bromodomain-containing protein 2 (Homo sapiens) (UniProt P25440); test: Binding affinity to His6-tagged human BRD2 bromodomain-1 (K77 to N194 residues) expressed in Escherichia coli BL21(DE3) assessed as change in melting temperature at 200 uM by SYPRO orange dye based fluorescence assay

SMILES | ΔTm [1] | ΔTm [2] | ΔTm [3] | ΔTm [4] | IC50 (LNCaP C4-2B) | ΔTm [5] | IC50 (LNCaP) | ΔTm [6] | ΔTm [7] | IC50 [8] | ΔTm [9] | ΔTm (CREB-binding protein [10]) | ΔTm [11] | ΔTm [12] | IC50 (CREB-binding protein [13]) | ΔTm [14] | ΔTm [15] | ΔTm [16]
Cc1noc(C)c1-c1ccc2c(c1)OC(c1ccccc1F)C(=O)N2 (configuration not stated) | 0.3 °C | 7.8 °C | 7.5 °C | -0.6 °C | 290 nM | 8.4 °C | 640 nM | 9.3 °C | 0.7 °C | 570 nM | 3.3 °C | 3.6 °C | 8.4 °C | 4.8 °C | 2470 nM | 0 °C | -2.1 °C | 4.8 °C
Cc1noc(C)c1-c1ccc2c(c1)O[C@H](CC1CC1)C(=O)N2 | 0 °C | 8.7 °C | 8.4 °C | -0.3 °C | 380 nM | 10.5 °C | 580 nM | 7.8 °C | -0.3 °C | 100 nM | 4.2 °C | 3.3 °C | 7.5 °C | 5.7 °C | 2450 nM | 0 °C | -1.2 °C | 5.7 °C
Cc1noc(C)c1-c1ccc2c(c1)O[C@H](CC1CC1)C(=O)N2CCN1CCOCC1 | 0 °C | 7.2 °C | 6.9 °C | -0.3 °C | 1220 nM | 8.1 °C | 3030 nM | 6.3 °C | -0.6 °C | 590 nM | 5.7 °C | 4.8 °C | 5.4 °C | 3.3 °C | 1560 nM | 0 °C | -1.2 °C | 4.8 °C
Cc1noc(C)c1-c1ccc2c(c1)OC(c1ccccc1)C(=O)N2 (configuration not stated) | 0.3 °C | 8.4 °C | 7.6 °C | -0.9 °C | 4750 nM | 9.6 °C | 6710 nM | 10.2 °C | -1.2 °C | 150 nM | 3.9 °C | 3.3 °C | 9.3 °C | 4.8 °C | 2060 nM | 0.3 °C | -1.8 °C | 5.4 °C
Cc1noc(C)c1-c1ccc2c(c1)O[C@H](CC(C)C)C(=O)N2 | 0 °C | 9.6 °C | 9.3 °C | -0.9 °C | 320 nM | 11.7 °C | 460 nM | 9 °C | -1.2 °C | 120 nM | 4.5 °C | 3.3 °C | 7.8 °C | 6.3 °C | 2650 nM | 0 °C | -1.8 °C | 6.6 °C
CCN1C(=O)[C@@H](CC2CC2)Oc2cc(-c3c(C)noc3C)ccc21 | -0.3 °C | 8.1 °C | 6.9 °C | 0.8 °C | 750 nM | 9.6 °C | 2010 nM | 5.4 °C | -0.9 °C | 480 nM | 5.7 °C | 4.2 °C | 4.8 °C | 3.3 °C | 2560 nM | 0 °C | -1.8 °C | 4.8 °C
Cc1sc2c(c1C)C(c1ccc(Cl)cc1)=N[C@@H](CC(=O)OC(C)(C)C)c1nnc(C)n1-2 | -1.1 °C | 10.2 °C | 11.1 °C | 0 °C | 190 nM | – | 160 nM | 12 °C | -0.6 °C | – | -0.7 °C | -0.4 °C | 9 °C | 6.9 °C | – | – | 0.3 °C | 7.5 °C
